Laboratory results published in ChEMBL document CHEMBL1154629, “Design, synthesis and biological evaluation of novel thiazole derivatives as potent FabH inhibitors” (Bioorg Med Chem Lett, 2009).
In brackets after ≈: the same amount, converted by molar mass.

Key:
Enterococcus faecalis = test: Antimicrobial activity Streptococcus faecalis ATCC 9790 by MTT assay; format: functional
Pseudomonas aeruginosa = test: Antimicrobial activity Pseudomonas aeruginosa ATCC 13525 by MTT assay
Bacillus subtilis = test: Antimicrobial activity Bacillus subtilis ATCC 6633 by MTT assay; format: functional
Enterobacter cloacae = test: Antimicrobial activity Enterobacter cloacae ATCC 13047 by MTT assay; format: functional
Staphylococcus aureus = test: Antimicrobial activity Staphylococcus aureus ATCC 6538 by MTT assay; format: functional
[1] = Toxicity in erythrocytes assessed as hemolysis; format: cell-based; conditions: erythrocyte
[2] = target: T1, 3-oxoacyl-[acyl-carrier-protein] synthase 3 (Escherichia coli, UniProt C3TDZ2); test: Inhibition of Escherichia coli FabH
T1 sequence (C3TDZ2 whole entry): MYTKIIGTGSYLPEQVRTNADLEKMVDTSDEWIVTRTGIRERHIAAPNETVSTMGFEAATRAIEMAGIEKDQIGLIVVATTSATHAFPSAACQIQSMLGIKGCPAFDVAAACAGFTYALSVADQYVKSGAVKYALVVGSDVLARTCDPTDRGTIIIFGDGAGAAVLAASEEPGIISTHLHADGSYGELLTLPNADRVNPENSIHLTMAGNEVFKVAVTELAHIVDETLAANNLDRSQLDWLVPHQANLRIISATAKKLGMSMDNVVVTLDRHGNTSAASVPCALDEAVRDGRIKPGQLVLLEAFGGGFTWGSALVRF

Escherichia coli = test: Antimicrobial activity Escherichia coli ATCC 35218 by MTT assay

Row | Compound | MIC (Enterococcus faecalis) | MIC (Pseudomonas aeruginosa) | MIC (Bacillus subtilis) | MIC (Enterobacter cloacae) | MIC (Staphylococcus aureus) | IC50 [2] | MIC (Escherichia coli) | LC30 [1]
1 | Oc1ccc(Br)cc1/C=N/Nc1nc(-c2ccc(Cl)cc2)cs1 | 12.5 µg/mL (≈ 30.6 µM) | 6.25 µg/mL (≈ 15.3 µM) | 25 µg/mL (≈ 61.2 µM) | 6.25 µg/mL (≈ 15.3 µM) | 6.25 µg/mL (≈ 15.3 µM) | 6.8 µM |  | > 10000 µg/mL
2 | Oc1c(Br)cc(Br)cc1/C=N/Nc1nc(-c2ccc(Cl)cc2)cs1 | > 50 µg/mL | 25 µg/mL (≈ 51.3 µM) | > 50 µg/mL | 6.25 µg/mL (≈ 12.8 µM) | 25 µg/mL (≈ 51.3 µM) | 78.4 µM |  | > 10000 µg/mL
3 | Oc1c(Cl)cc(Cl)cc1/C=N/Nc1nc(-c2ccccc2)cs1 | 25 µg/mL (≈ 68.6 µM) | > 50 µg/mL | 25 µg/mL (≈ 68.6 µM) | 12.5 µg/mL (≈ 34.3 µM) | > 50 µg/mL |  |  | 
4 | Oc1c(Br)cc(Br)cc1/C=N/Nc1nc(-c2ccccc2)cs1 | 25 µg/mL (≈ 55.2 µM) | 25 µg/mL (≈ 55.2 µM) | 12.5 µg/mL (≈ 27.6 µM) | 25 µg/mL (≈ 55.2 µM) | > 50 µg/mL |  | 25 µg/mL (≈ 55.2 µM) | 
5 | Oc1c(Br)cc(Br)cc1/C=N/Nc1nc(-c2ccc(Cl)c(Cl)c2)cs1 | 6.25 µg/mL (≈ 12 µM) | 3.12 µg/mL (≈ 5.99 µM) | 3.12 µg/mL (≈ 5.99 µM) | 3.12 µg/mL (≈ 5.99 µM) | 6.25 µg/mL (≈ 12 µM) | 3.6 µM |  | > 10000 µg/mL
6 | CC1(C)S[C@@H]2[C@H](NC(=O)Cc3ccccc3)C(=O)N2[C@H]1C(=O)O [PENICILLIN G] | 1.56 µg/mL (≈ 4.67 µM) | 6.25 µg/mL (≈ 18.7 µM) | 1.56 µg/mL (≈ 4.67 µM) | 3.12 µg/mL (≈ 9.35 µM) | 1.56 µg/mL (≈ 4.67 µM) |  | 6.25 µg/mL (≈ 18.7 µM) | 
7 | Fc1ccc(/C=N/Nc2nc(-c3ccc(Cl)c(Cl)c3)cs2)cc1 | 6.25 µg/mL (≈ 17.1 µM) | 25 µg/mL (≈ 68.3 µM) | 6.25 µg/mL (≈ 17.1 µM) | 25 µg/mL (≈ 68.3 µM) | 0.78 µg/mL (≈ 2.13 µM) |  | 25 µg/mL (≈ 68.3 µM) | 
8 | Clc1ccc(/C=N/Nc2nc(-c3ccc(Cl)c(Cl)c3)cs2)cc1 | 25 µg/mL (≈ 65.3 µM) | 12.5 µg/mL (≈ 32.7 µM) | 12.5 µg/mL (≈ 32.7 µM) | 25 µg/mL (≈ 65.3 µM) | 1.56 µg/mL (≈ 4.08 µM) |  | 12.5 µg/mL (≈ 32.7 µM) | 
9 | Oc1ccc(Cl)cc1/C=N/Nc1nc(-c2ccc(Cl)cc2)cs1 | 25 µg/mL (≈ 68.6 µM) | 12.5 µg/mL (≈ 34.3 µM) | 6.25 µg/mL (≈ 17.2 µM) | 12.5 µg/mL (≈ 34.3 µM) | 12.5 µg/mL (≈ 34.3 µM) | 11.7 µM |  | > 10000 µg/mL
10 | NC[C@H]1O[C@H](O[C@H]2[C@H](O)[C@@H](O[C@H]3O[C@H](CO)[C@@H](O)[C@H](N)[C@H]3O)[C@H](N)C[C@@H]2N)[C@H](N)[C@@H](O)[C@@H]1O [BEKANAMYCIN] | 3.12 µg/mL (≈ 6.46 µM) | 3.12 µg/mL (≈ 6.46 µM) | 0.39 µg/mL (≈ 0.807 µM) | 1.56 µg/mL (≈ 3.23 µM) | 1.56 µg/mL (≈ 3.23 µM) |  | 3.12 µg/mL (≈ 6.46 µM) | 
11 | Oc1c(Cl)cc(Cl)cc1/C=N/Nc1nc(-c2ccc(Cl)cc2)cs1 | 12.5 µg/mL (≈ 31.4 µM) | 6.25 µg/mL (≈ 15.7 µM) | > 50 µg/mL | > 50 µg/mL | > 50 µg/mL | 57.6 µM | 6.25 µg/mL (≈ 15.7 µM) | > 10000 µg/mL
12 | Oc1c(Cl)cc(Cl)cc1/C=N/Nc1nc(-c2ccc(Cl)c(Cl)c2)cs1 | 12.5 µg/mL (≈ 28.9 µM) | 6.25 µg/mL (≈ 14.4 µM) | 12.5 µg/mL (≈ 28.9 µM) | 12.5 µg/mL (≈ 28.9 µM) | 6.25 µg/mL (≈ 14.4 µM) | 16.5 µM |  | > 10000 µg/mL
13 | COc1ccc(/C=N/Nc2nc(-c3ccc(Cl)c(Cl)c3)cs2)cc1 | > 50 µg/mL | 25 µg/mL (≈ 66.1 µM) | 25 µg/mL (≈ 66.1 µM) | 6.25 µg/mL (≈ 16.5 µM) | 25 µg/mL (≈ 66.1 µM) |  |  | 
14 | Oc1ccc(Cl)cc1/C=N/Nc1nc(-c2ccc(Cl)c(Cl)c2)cs1 | 12.5 µg/mL (≈ 31.4 µM) | 12.5 µg/mL (≈ 31.4 µM) | > 50 µg/mL | > 50 µg/mL | 12.5 µg/mL (≈ 31.4 µM) | 39.6 µM |  | > 10000 µg/mL
15 | Oc1ccc(Br)cc1/C=N/Nc1nc(-c2ccc(Cl)c(Cl)c2)cs1 | > 50 µg/mL | 12.5 µg/mL (≈ 28.2 µM) | 12.5 µg/mL (≈ 28.2 µM) | 12.5 µg/mL (≈ 28.2 µM) | 25 µg/mL (≈ 56.4 µM) | 43.4 µM |  | > 10000 µg/mL

Continued, in another order:

Row | MIC (Enterococcus faecalis) | MIC (Pseudomonas aeruginosa) | MIC (Bacillus subtilis) | MIC (Enterobacter cloacae) | MIC (Staphylococcus aureus) | IC50 [2] | MIC (Escherichia coli) | Compound | LC30 [1]
16 | 1.56 µg/mL (≈ 4.36 µM) | 12.5 µg/mL (≈ 34.9 µM) | > 50 µg/mL | 25 µg/mL (≈ 69.8 µM) | 12.5 µg/mL (≈ 34.9 µM) |  |  | Brc1ccc(/C=N/Nc2nc(-c3ccccc3)cs2)cc1 | 
17 | > 50 µg/mL | > 50 µg/mL | 25 µg/mL (≈ 80.8 µM) | > 50 µg/mL | > 50 µg/mL |  |  | COc1ccc(/C=N/Nc2nc(-c3ccccc3)cs2)cc1 | 
18 | 12.5 µg/mL (≈ 33.4 µM) | 25 µg/mL (≈ 66.8 µM) | 12.5 µg/mL (≈ 33.4 µM) | 25 µg/mL (≈ 66.8 µM) | 25 µg/mL (≈ 66.8 µM) |  |  | Oc1ccc(Br)cc1/C=N/Nc1nc(-c2ccccc2)cs1 | 
19 | > 50 µg/mL | 25 µg/mL (≈ 69 µM) | > 50 µg/mL | 12.5 µg/mL (≈ 34.5 µM) | 25 µg/mL (≈ 69 µM) |  | 25 µg/mL (≈ 69 µM) | Cc1ccc(/C=N/Nc2nc(-c3ccc(Cl)c(Cl)c3)cs2)cc1 | 
20 | 12.5 µg/mL (≈ 38.1 µM) | 25 µg/mL (≈ 76.3 µM) | 6.25 µg/mL (≈ 19.1 µM) | 6.25 µg/mL (≈ 19.1 µM) | 25 µg/mL (≈ 76.3 µM) |  |  | Cc1ccc(/C=N/Nc2nc(-c3ccc(Cl)cc3)cs2)cc1 | 
21 | > 50 µg/mL | 25 µg/mL (≈ 72.7 µM) | 12.5 µg/mL (≈ 36.4 µM) | > 50 µg/mL | 25 µg/mL (≈ 72.7 µM) |  |  | COc1ccc(/C=N/Nc2nc(-c3ccc(Cl)cc3)cs2)cc1 | 
22 | 25 µg/mL (≈ 79.7 µM) | 25 µg/mL (≈ 79.7 µM) | 25 µg/mL (≈ 79.7 µM) | 25 µg/mL (≈ 79.7 µM) | 25 µg/mL (≈ 79.7 µM) |  |  | Clc1ccc(/C=N/Nc2nc(-c3ccccc3)cs2)cc1 | 
23 | 12.5 µg/mL (≈ 37.7 µM) | 25 µg/mL (≈ 75.3 µM) | 12.5 µg/mL (≈ 37.7 µM) | 25 µg/mL (≈ 75.3 µM) | 6.25 µg/mL (≈ 18.8 µM) |  |  | Fc1ccc(/C=N/Nc2nc(-c3ccc(Cl)cc3)cs2)cc1 | 
24 | > 50 µg/mL | 25 µg/mL (≈ 85.2 µM) | > 50 µg/mL | > 50 µg/mL | 25 µg/mL (≈ 85.2 µM) |  |  | Cc1ccc(/C=N/Nc2nc(-c3ccccc3)cs2)cc1 | 
25 | 25 µg/mL (≈ 58.5 µM) | 12.5 µg/mL (≈ 29.3 µM) | 6.25 µg/mL (≈ 14.6 µM) | > 50 µg/mL | 3.12 µg/mL (≈ 7.32 µM) |  | 12.5 µg/mL (≈ 29.3 µM) | Clc1ccc(-c2csc(N/N=C/c3ccc(Br)cc3)n2)cc1Cl | 
26 | 25 µg/mL (≈ 63.7 µM) | > 50 µg/mL | 12.5 µg/mL (≈ 31.8 µM) | 12.5 µg/mL (≈ 31.8 µM) | 12.5 µg/mL (≈ 31.8 µM) |  |  | Clc1ccc(-c2csc(N/N=C/c3ccc(Br)cc3)n2)cc1 | 
27 | 25 µg/mL (≈ 75.8 µM) | 12.5 µg/mL (≈ 37.9 µM) | > 50 µg/mL | > 50 µg/mL | > 50 µg/mL |  | 12.5 µg/mL (≈ 37.9 µM) | Oc1ccc(Cl)cc1/C=N/Nc1nc(-c2ccccc2)cs1 | 
28 | > 50 µg/mL | 6.25 µg/mL (≈ 17.9 µM) | > 50 µg/mL | > 50 µg/mL | 12.5 µg/mL (≈ 35.9 µM) |  |  | Clc1ccc(/C=N/Nc2nc(-c3ccc(Cl)cc3)cs2)cc1 | 
29 | > 50 µg/mL | 12.5 µg/mL (≈ 42 µM) | 12.5 µg/mL (≈ 42 µM) | > 50 µg/mL | 6.25 µg/mL (≈ 21 µM) |  |  | Fc1ccc(/C=N/Nc2nc(-c3ccccc3)cs2)cc1 | 
